Laboratory results as given in ChEMBL document CHEMBL3813616, “Discovery of novel 7-azaindoles as PDK1 inhibitors” (Bioorg Med Chem Lett, 2016).

Experiments:
[1] = target: T1, Lymphokine-activated killer T-cell-originated protein kinase (Homo sapiens) (UniProt Q96KB5); experiment: Inhibition of human PBK (2 to 297 residues) assessed as enzyme activity at 1 uM using 33P ATP by radioactive filter binding assay; parameters: scale not given: the % may be the effect or the level left
T1 sequence (whole entry): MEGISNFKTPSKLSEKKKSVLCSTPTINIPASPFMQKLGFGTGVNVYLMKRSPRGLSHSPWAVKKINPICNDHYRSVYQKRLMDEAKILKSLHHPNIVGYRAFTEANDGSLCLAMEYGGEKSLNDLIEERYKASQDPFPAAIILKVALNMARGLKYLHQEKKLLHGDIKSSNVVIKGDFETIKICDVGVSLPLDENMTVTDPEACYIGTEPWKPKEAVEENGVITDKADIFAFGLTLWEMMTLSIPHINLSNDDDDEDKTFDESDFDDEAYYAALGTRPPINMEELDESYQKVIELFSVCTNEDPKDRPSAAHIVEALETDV

[2] = target: Calcium/calmodulin-dependent protein kinase kinase 2 (Homo sapiens) (UniProt Q96RR4); experiment: Inhibition of human CAMKKb (1 to 541 residues) assessed as enzyme activity at 1 uM using 33P ATP by radioactive filter binding assay; parameters: scale not given: the % may be the effect or the level left
Calcium/calmodulin-dependent protein kinase kinase 2 (Homo sapiens), sequence (Q96RR4 2-588 limits assumed): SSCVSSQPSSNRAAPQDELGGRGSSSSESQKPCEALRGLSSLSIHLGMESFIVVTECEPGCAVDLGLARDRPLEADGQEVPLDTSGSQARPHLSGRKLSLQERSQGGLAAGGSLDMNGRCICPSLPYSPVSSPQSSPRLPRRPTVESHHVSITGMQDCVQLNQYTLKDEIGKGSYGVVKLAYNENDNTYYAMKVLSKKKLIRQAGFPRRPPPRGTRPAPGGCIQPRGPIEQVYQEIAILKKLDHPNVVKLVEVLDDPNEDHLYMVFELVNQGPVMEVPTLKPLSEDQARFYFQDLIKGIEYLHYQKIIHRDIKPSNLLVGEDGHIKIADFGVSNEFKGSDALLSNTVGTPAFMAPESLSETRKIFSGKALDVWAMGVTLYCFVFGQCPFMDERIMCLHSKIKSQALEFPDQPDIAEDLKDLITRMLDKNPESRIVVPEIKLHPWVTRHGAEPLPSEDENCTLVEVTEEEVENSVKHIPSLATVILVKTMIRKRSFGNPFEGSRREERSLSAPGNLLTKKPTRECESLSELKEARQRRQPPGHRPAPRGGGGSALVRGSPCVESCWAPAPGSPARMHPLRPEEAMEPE

[3] = target: Phosphatidylinositol 4,5-bisphosphate 3-kinase catalytic subunit alpha isoform (Homo sapiens, UniProt P42336); experiment: Inhibition of PI3K alpha (unknown origin)
Phosphatidylinositol 4,5-bisphosphate 3-kinase catalytic subunit alpha isoform, sequence (P42336 whole entry, the tested form may be a part, canonical isoform): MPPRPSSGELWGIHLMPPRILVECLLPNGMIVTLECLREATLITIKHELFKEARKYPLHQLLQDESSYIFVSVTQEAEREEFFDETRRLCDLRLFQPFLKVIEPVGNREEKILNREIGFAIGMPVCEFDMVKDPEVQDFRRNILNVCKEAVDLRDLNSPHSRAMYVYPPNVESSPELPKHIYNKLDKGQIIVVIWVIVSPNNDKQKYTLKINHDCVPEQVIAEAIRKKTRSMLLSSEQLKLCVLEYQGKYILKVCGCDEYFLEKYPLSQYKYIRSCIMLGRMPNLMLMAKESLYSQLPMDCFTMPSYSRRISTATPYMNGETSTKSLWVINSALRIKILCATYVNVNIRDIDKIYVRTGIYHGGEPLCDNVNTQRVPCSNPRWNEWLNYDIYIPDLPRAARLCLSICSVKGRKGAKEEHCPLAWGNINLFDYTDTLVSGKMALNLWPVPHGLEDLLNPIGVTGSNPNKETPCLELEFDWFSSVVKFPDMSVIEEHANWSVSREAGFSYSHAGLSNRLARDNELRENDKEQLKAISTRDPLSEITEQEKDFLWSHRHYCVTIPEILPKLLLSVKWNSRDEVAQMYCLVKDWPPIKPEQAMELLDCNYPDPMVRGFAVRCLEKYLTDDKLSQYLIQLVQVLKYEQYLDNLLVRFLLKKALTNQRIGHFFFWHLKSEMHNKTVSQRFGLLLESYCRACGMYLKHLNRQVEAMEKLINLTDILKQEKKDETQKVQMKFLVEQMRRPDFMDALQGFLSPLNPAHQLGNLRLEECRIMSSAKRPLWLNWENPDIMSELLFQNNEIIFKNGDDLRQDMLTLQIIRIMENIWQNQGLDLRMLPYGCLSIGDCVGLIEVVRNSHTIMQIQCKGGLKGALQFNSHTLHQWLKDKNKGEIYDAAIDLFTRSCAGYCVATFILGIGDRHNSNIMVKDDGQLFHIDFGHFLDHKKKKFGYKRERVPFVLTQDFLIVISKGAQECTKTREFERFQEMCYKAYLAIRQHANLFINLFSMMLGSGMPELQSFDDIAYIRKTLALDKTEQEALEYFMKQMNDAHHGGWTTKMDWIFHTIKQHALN

[4] = target: T2, Serine/threonine-protein kinase 3 (Homo sapiens) (UniProt Q13188); experiment: Inhibition of human MST2 (2 to 491 residues) assessed as enzyme activity at 1 uM using 33P ATP by radioactive filter binding assay; parameters: scale not given: the % may be the effect or the level left
T2 sequence (whole entry): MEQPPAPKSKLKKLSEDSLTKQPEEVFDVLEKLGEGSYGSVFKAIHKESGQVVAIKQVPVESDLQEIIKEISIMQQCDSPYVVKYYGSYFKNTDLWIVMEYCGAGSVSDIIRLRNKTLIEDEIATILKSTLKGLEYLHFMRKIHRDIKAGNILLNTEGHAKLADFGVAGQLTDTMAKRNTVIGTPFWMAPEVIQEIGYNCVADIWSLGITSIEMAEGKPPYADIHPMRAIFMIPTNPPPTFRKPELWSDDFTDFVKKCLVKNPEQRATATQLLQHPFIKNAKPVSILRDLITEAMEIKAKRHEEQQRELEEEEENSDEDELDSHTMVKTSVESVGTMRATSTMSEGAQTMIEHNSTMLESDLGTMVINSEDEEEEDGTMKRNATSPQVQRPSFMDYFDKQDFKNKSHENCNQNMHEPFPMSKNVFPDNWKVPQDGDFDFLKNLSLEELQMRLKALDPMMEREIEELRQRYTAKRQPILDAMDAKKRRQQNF

[5] = target: Mitogen-activated protein kinase 14 (Homo sapiens) (UniProt Q16539); experiment: Inhibition of SAPK2a (unknown origin) assessed as enzyme activity at 1 uM using 33P ATP by radioactive filter binding assay; parameters: scale not given: the % may be the effect or the level left
Mitogen-activated protein kinase 14 (Homo sapiens), sequence (Q16539 whole entry, the tested form may be a part): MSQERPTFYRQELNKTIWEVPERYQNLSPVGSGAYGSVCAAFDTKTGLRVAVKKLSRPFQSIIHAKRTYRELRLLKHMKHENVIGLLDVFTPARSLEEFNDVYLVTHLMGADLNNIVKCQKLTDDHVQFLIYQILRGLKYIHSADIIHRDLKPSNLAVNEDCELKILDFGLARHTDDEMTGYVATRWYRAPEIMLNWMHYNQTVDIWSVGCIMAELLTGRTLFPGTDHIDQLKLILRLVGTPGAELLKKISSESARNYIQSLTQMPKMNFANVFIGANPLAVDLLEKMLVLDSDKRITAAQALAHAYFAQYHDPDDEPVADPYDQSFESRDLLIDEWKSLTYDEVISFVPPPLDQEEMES

[6] = target: T3, 3-phosphoinositide-dependent protein kinase 1 (Homo sapiens) (UniProt O15530); experiment: Inhibition of human PDK1 (52 to 556 residues) assessed as enzyme activity at 1 uM using 33P ATP by radioactive filter binding assay; parameters: scale not given: the % may be the effect or the level left
T3 sequence (whole entry): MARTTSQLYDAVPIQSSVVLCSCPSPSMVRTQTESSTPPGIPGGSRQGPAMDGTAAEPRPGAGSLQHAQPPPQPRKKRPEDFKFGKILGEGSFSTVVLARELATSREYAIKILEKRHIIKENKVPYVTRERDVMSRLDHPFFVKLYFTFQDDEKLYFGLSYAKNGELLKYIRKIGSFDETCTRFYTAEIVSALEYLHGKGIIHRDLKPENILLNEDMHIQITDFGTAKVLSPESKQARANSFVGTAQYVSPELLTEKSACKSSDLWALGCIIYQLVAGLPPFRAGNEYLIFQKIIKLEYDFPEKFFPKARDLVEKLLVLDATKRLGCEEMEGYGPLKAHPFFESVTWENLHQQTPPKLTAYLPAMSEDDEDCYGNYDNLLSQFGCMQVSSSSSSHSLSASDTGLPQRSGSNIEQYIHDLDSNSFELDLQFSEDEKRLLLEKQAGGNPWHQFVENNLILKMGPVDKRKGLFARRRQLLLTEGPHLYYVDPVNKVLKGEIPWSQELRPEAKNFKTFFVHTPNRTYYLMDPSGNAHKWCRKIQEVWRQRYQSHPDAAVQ

[7] = target: Serine/threonine-protein kinase pim-2 (Homo sapiens) (UniProt Q9P1W9); experiment: Inhibition of human PIM2 (2 to 334 residues) assessed as enzyme activity at 1 uM using 33P ATP by radioactive filter binding assay; parameters: scale not given: the % may be the effect or the level left
Serine/threonine-protein kinase pim-2 (Homo sapiens), sequence (Q9P1W9 whole entry, looked up, the tested form may be a part): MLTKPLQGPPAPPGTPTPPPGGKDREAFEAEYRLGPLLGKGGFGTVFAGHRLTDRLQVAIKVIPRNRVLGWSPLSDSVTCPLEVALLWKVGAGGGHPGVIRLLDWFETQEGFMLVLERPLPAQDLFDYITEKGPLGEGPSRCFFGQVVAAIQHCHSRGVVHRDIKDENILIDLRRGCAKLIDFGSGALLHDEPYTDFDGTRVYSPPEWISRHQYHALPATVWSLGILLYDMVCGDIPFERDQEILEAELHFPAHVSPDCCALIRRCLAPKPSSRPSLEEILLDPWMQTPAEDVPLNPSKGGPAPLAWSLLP

[8] = target: T4, Serine/threonine-protein kinase BRSK2 (Homo sapiens) (UniProt Q8IWQ3); experiment: Inhibition of human BRSK2 (2 to 674 residues) assessed as enzyme activity at 1 uM using 33P ATP by radioactive filter binding assay; parameters: scale not given: the % may be the effect or the level left
T4 sequence (whole entry): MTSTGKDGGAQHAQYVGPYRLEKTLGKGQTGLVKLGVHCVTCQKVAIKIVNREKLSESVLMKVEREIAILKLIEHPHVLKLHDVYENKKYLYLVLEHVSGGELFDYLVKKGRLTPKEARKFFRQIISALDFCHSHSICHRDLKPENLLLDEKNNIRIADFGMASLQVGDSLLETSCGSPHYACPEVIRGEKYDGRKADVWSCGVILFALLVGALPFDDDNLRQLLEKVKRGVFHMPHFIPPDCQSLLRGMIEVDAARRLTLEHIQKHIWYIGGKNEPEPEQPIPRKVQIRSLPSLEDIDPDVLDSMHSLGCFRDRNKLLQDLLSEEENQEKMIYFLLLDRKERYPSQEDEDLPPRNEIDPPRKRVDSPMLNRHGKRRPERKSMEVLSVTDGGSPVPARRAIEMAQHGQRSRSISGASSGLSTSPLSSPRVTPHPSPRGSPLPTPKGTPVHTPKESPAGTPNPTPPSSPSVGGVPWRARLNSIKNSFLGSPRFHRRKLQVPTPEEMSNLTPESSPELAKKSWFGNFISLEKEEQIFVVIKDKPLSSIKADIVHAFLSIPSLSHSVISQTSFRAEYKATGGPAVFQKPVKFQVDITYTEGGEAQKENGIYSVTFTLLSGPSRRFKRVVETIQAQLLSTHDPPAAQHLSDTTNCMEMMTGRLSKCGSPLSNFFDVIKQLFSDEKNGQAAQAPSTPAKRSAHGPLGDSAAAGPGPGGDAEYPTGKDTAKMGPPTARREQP

[9] = target: Casein kinase I isoform delta (Homo sapiens) (UniProt P48730); experiment: Inhibition of human CK1 delta (1 to 415 residues) assessed as enzyme activity at 1 uM using 33P ATP by radioactive filter binding assay; parameters: scale not given: the % may be the effect or the level left
Casein kinase I isoform delta (Homo sapiens), sequence (P48730 whole entry, looked up, the tested form may be a part, canonical isoform): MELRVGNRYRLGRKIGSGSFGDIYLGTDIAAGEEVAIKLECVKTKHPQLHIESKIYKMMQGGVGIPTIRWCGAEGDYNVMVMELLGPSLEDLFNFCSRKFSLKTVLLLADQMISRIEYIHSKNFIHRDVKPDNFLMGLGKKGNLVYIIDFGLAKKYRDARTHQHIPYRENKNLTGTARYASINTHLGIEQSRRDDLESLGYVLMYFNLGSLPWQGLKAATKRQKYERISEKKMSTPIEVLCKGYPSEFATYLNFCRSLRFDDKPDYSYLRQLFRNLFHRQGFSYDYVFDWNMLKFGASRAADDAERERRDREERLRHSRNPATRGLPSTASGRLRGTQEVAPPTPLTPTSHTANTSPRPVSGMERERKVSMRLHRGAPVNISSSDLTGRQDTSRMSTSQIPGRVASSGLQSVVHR

[10] = target: Tyrosine-protein kinase BTK (Homo sapiens) (UniProt Q06187); experiment: Inhibition of human BTK (2 to 659 residues) assessed as enzyme activity at 1 uM using 33P ATP by radioactive filter binding assay; parameters: scale not given: the % may be the effect or the level left
Tyrosine-protein kinase BTK (Homo sapiens), sequence (Q06187 whole entry, the tested form may be a part): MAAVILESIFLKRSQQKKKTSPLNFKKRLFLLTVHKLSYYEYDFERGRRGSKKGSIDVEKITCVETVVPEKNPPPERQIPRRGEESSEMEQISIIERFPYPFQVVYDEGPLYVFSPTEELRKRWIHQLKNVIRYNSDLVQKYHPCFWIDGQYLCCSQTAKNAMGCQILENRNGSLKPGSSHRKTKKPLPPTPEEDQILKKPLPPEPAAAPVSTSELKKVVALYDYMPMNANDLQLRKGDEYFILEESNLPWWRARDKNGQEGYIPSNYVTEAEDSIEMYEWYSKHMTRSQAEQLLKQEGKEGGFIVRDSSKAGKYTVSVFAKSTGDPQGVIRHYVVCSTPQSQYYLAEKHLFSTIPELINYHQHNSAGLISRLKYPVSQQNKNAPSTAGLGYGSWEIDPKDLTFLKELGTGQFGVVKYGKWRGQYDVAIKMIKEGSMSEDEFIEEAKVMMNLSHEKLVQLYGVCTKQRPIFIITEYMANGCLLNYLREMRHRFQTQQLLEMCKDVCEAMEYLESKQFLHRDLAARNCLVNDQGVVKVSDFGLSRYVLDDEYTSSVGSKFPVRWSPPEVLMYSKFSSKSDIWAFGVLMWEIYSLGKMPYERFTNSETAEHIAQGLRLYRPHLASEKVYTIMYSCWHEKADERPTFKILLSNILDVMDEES

| Activity [2] [%] | IC50 [3] [µM] | Activity [4] [%] | Activity [5] [%] | Activity [6] [%] | Activity [7] [%] | Activity [8] [%] | Activity [9] [%] | Activity [10] [%] | SMILES | Activity [1] [%] |
| --- | --- | --- | --- | --- | --- | --- | --- | --- | --- | --- |
| -2 | > 10 | -33 | -10 | -54 | -25 | -12 | -26 |  | CCCCc1cc(-c2c[nH]c3ncccc23)nc(N)n1 | -21 |
| -31 | > 10 | -20 | -5 | -12 | -39 | -16 | -74 | -13 | Nc1nccc(-c2c[nH]c3ncccc23)n1 [MERIOLIN 1] | -40 |
| -86 | 5.5 | -86 | -22 | -92 | -98 | -65 | -72 | -28 | CCCCc1cc(-c2c[nH]c3ncc(-c4cnn(C5CCNCC5)c4)cc23)nc(N)n1 | -96 |
| -58 |  | -63 | -16 | -80 | -87 | -65 | -67 | -31 | CCc1cc(-c2c[nH]c3ncc(-c4cnn(C5CCNCC5)c4)cc23)nc(N)n1 | -95 |
